For assay [1], the system named is pERK in NCI-H358 cells. Put plainly: Cell-based pERK HTRF assay (pERK inhibition in H358 cells). Conditions: Homo sapiens, NCI-H358, 0.5 h, 30 min incubation. The method, boiled down: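 NCI-H358 cells were seeded at 4×10^4 cells/well in RPMI/10% FBS, then treated next day for 30 min at 0.25% DMSO (9-point, 3-fold series from 75 μM). Lysates were read by HTRF (d2/Eu cryptate antibody pair, 615 nm emission) after 4–24 h at room temperature to give pERK IC50.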
A general note: In TR-FRET formats the signal depends on donor and acceptor labels being close together.

The target of assay [2] is T1, GTP-loaded KRAS4b (amino acids 1-169) G12C/C118S protein (Homo sapiens, UniProt P01116, C118S/G12C).
T1 construct: KRAS4b (amino acids 1-169) G12C/C118S protein; made in house
Put plainly: Covalent cysteine 12 modification by MALDI-TOF MS, GTP-loaded KRAS G12C. It counts as binding. Conditions: 15 minutes reaction time point. The method, boiled down: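 With several adducts, each species' height is expressed as a fraction of all observed protein peaks, scored on linear-mode spectra. Reactions run at pH 7.3 (HEPES, 150 mM NaCl, 1 mM MgCl2), using 1 μM protein and a 1:2.5 protein:compound ratio, and are sampled after 15 minutes in the dark.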

20 compounds from patent publication US20260232666A1, “COMPOSITIONS AND METHODS FOR INHIBITION OF RAS” (TheRas, Inc., priority 2023, published 2026) can be followed below.

As for `C=CC(=O)N1CC[C@@H](N(CC)c2nc(OC[C@@H]3CCCN3C)nc3c(F)c(-c4ccc(F)c5sc(N)c(C#N)c45)ccc23)[C@H]1C` [Compound 141], the IC50 – broadly, the concentration that gives 50% inhibition – in assay [1] was below 100 nM. The “GTP-KRAS G12C percent of modification” value in assay [2] is on record as “A (percent of modification ≥70%)”.

Regarding `C=CC(=O)N1CC[C@@H](N(CC)c2nc(OC[C@@H]3C[C@@H](F)CN3C)nc3c(F)c(-c4ccc(F)c5sc(N)c(C#N)c45)ccc23)[C@H]1C` [Compound 142], the IC50 in assay [1] is below 100 nM. In addition, the “GTP-KRAS G12C percent of modification” value in assay [2] is “A (percent of modification ≥70%)”.

The compound `C=CC(=O)N1CC[C@@H](N(C)c2nc(OC[C@@H]3C[C@@H](F)CN3CC)nc3c(F)c(-c4ccc(F)c5sc(N)c(C#N)c45)c(C(F)(F)F)cc23)[C@@H]1C` [Compound 144] returned an IC50 in assay [1] below 100 nM. In addition, the “GTP-KRAS G12C percent of modification” value in assay [2] was “C (10%≤percent of modification <50%)”.

`C=CC(=O)N1CC[C@@H](N(C)c2nc(OC[C@@H]3C[C@@H](F)CN3C)nc3c(F)c(-c4nc(N)cc(C)c4C(F)(F)F)c(C(F)(F)F)cc23)[C@H]1C` [Compound 145] returned an IC50 in assay [1] of 100 to 1000 nM. Also, the “GTP-KRAS G12C percent of modification” value in assay [2] is given as “C (10%≤percent of modification <50%)”.

For `C=CC(=O)N1C[C@H](N(C)c2nc(OC[C@@H]3CCCN3C)nc3c(F)c(-c4ccc(F)c5sc(N)c(C#N)c45)c(C(F)(F)F)cc23)C[C@H]1C` [Compound 147], the IC50 in assay [1] is below 100 nM. Moreover, in assay [2], the “GTP-KRAS G12C percent of modification” value is “A (percent of modification ≥70%)”.

In assay [1], `C=CC(=O)N1C[C@H](N(C)c2nc(OC[C@@]34CCCN3C[C@H](F)C4)nc3cc(-c4ccc(F)c5sc(N)c(C#N)c45)c(F)cc23)C[C@H]1C` [Compound 148] returned a half-maximal inhibitory concentration (IC50) below 100 nM. The “GTP-KRAS G12C percent of modification” value in assay [2] is “A (percent of modification ≥70%)”.

In assay [1], `C=CC(=O)N1CC[C@@H](N(CC)c2nc(OC[C@@]34CCCN3C[C@H](OC)C4)nc3cc(-c4ccc(F)c5sc(N)c(C#N)c45)c(F)cc23)[C@H]1C` [Compound 149] returned an IC50 below 100 nM. Also, the “GTP-KRAS G12C percent of modification” value in assay [2] is “A (percent of modification ≥70%)”.

On to `C=CC(=O)N1CC[C@@H](N(CC)c2nc(OC[C@@]34CCCN3C[C@H](OC)C4)nc3c(F)c(-c4ccc(F)c5sc(N)c(C#N)c45)c(C(F)(F)F)cc23)[C@H]1C` [Compound 150], for which the IC50 in assay [1] is below 100 nM. In assay [2], the “GTP-KRAS G12C percent of modification” value is “A (percent of modification ≥70%)”.

`C=CC(=O)N1CC[C@@H](N(C)c2nc(OC[C@@]34CCCN3C[C@H](OC)C4)nc3c(F)c(-c4ccc(F)c5sc(N)c(C#N)c45)c(C(F)(F)F)cc23)[C@H]1C` [Compound 151] came in with an IC50 in assay [1] below 100 nM. In addition, in assay [2], the “GTP-KRAS G12C percent of modification” value is on record as “A (percent of modification ≥70%)”.

With `C=CC(=O)N1C[C@H](N(C)c2nc(OC[C@@H]3CCCN3C)nc3c(F)c(-c4ccc(F)c5sc(N)c(C#N)c45)c(C(F)(F)F)cc23)C[C@@H]1C` [Compound 153], the IC50 in assay [1] is below 100 nM. The “GTP-KRAS G12C percent of modification” value in assay [2] is reported as “A (percent of modification ≥70%)”.

In assay [1], `C=CC(=O)N1CC[C@@H](N(CC)c2nc(OC[C@@H]3CCCN3C)nc3c(F)c(-c4nc(N)cc(C)c4C(F)(F)F)c(C(F)(F)F)cc23)[C@H]1C` [Compound 155] yielded an IC50 below 100 nM. Moreover, the “GTP-KRAS G12C percent of modification” value in assay [2] is reported as “C (10%≤percent of modification <50%)”.

For the compound `C=CC(=O)N1CC[C@@H](N(C)c2nc(OC[C@]34CCCN3C[C@H](OC)C4)nc3c(F)c(-c4ccc(F)c5sc(N)c(C#N)c45)c(C(F)(F)F)cc23)[C@H]1C` [Compound 156], the IC50 in assay [1] is below 100 nM. Also, the “GTP-KRAS G12C percent of modification” value in assay [2] is on record as “A (percent of modification ≥70%)”.

For the compound `C=CC(=O)N1CC[C@@H](N(CC)c2nc(OC[C@]34CCCN3C[C@H](OC)C4)nc3c(F)c(-c4ccc(F)c5sc(N)c(C#N)c45)c(C(F)(F)F)cc23)[C@H]1C` [Compound 158], the 50% inhibitory concentration (IC50) in assay [1] was below 100 nM. For the same compound, the “GTP-KRAS G12C percent of modification” value in assay [2] is “B (50≤percent of modification <70%)”.

`C=CC(=O)N1CC[C@@H](N(CC)c2nc(OC[C@]34CCCN3C[C@H](F)C4)nc3c(F)c(-c4ccc(F)c5sc(N)c(C#N)c45)c(C(F)(F)F)cc23)[C@H]1C` [Compound 159] gave an IC50 in assay [1] below 100 nM. Besides, in assay [2], the “GTP-KRAS G12C percent of modification” value is listed as “B (50≤percent of modification <70%)”.

In assay [1], `C=CC(=O)N1CC[C@@H](N(C)c2nc(OC[C@]34CCCN3C[C@H](OC)C4)nc3c(F)c(-c4ccc(F)c5sc(N)c(C#N)c45)c(Cl)cc23)[C@H]1C` [Compound 161] displayed a half-maximal inhibitory concentration (IC50) below 100 nM. Moreover, in assay [2], the “GTP-KRAS G12C percent of modification” value is on record as “A (percent of modification ≥70%)”.

In turn, `C=CC(=O)N1CC[C@@H](N(CC)c2nc(OC[C@@]34CCCN3C[C@H](OC)C4)nc3c(F)c(-c4ccc(F)c5sc(N)c(C#N)c45)c(Cl)cc23)[C@H]1C` [Compound 163] came in with an IC50 in assay [1] below 100 nM. The “GTP-KRAS G12C percent of modification” value in assay [2] is given as “A (percent of modification ≥70%)”.

Turning to `C=CC(=O)N1CC[C@@H](N(CC)c2nc(OC[C@]34CCCN3C[C@H](OC)C4)nc3c(F)c(-c4ccc(F)c5sc(N)c(C#N)c45)c(Cl)cc23)[C@H]1C` [Compound 164], in assay [1], the IC50 was below 100 nM. Further, the “GTP-KRAS G12C percent of modification” value in assay [2] was “A (percent of modification ≥70%)”.

In assay [1], `C=CC(=O)N1CC[C@@H](N(CC)c2nc(OC[C@]34CCCN3C[C@H](F)C4)nc3c(F)c(-c4ccc(F)c5sc(N)c(C#N)c45)c(Cl)cc23)[C@H]1C` [Compound 165] yielded an IC50 below 100 nM. In assay [2], the “GTP-KRAS G12C percent of modification” value is “A (percent of modification ≥70%)”.

`C=CC(=O)N1CC[C@@H](N(CC)c2nc(OC[C@]34CCCN3C[C@H](F)C4)nc3cc(-c4ccc(F)c5sc(N)c(C#N)c45)c(F)cc23)[C@H]1C` [Compound 167] came in with an IC50 in assay [1] below 100 nM. Further, in assay [2], the “GTP-KRAS G12C percent of modification” value was “A (percent of modification ≥70%)”.

In assay [1], `C=CC(=O)N1CC[C@@H](N(CC)c2nc(OC[C@]34CCCN3C[C@H](OC)C4)nc3c(F)c(-c4ccc(F)c5sc(N)c(C#N)c45)ccc23)[C@H]1C` [Compound 169] returned an IC50 of 100 to 1000 nM. Moreover, the “GTP-KRAS G12C percent of modification” value in assay [2] is “A (percent of modification ≥70%)”.
